Values of other authors in patent publication US6689455B2, “Method of producing hexagonal ferrite and magnetic recording medium using said hexagonal ferrite” (Fuji Photo Film Co., Ltd., priority 2001, dated 2004).

Conditions: for pKa: value in parentheses after the compound name, acetic acid: 2 mol/l aqueous solution; for Organic matter pKa value: organic matter used to treat the ferrite powder, Tables 1 and 2; for pKa1: first dissociation of dicarboxylic acids

| pKa1 | Compound | pKa | Organic matter pKa value |
| --- | --- | --- | --- |
| – | O=S(=O)(O)c1ccccc1 [benzenesulfonic acid] | 2.55 | – |
| – | O=C(NO)c1ccccc1 [benzohydroxamic acid] | 2.3 | – |
| – | O=P([O-])([O-])CN(CCN(CCN(CP(=O)([O-])[O-])CP(=O)([O-])O)CP(=O)([O-])O)CP(=O)([O-])O.[Na+].[Na+].[Na+].[Na+].[Na+].[Na+].[Na+] [heptasodium diethylenetriamine-pentamethylene phosphonate] | – | 1.8 |
| – | O=P(O)(O)Oc1ccccc1 [phenoxyphosphonic acid] | 1.95 | 2.0 |
| – | O=P(O)(O)c1ccccc1 [phenylphosphonic acid] | 1.8 | 1.8 |
| 2.75 | O=C(O)c1ccccc1C(=O)O [phthalic acid] | – | – |
| – | NS(=O)(=O)O [sulfaminic acid] | 1.65 | – |
| 3.54 | O=C(O)c1ccc(C(=O)O)cc1 [terephthalic acid] | – | – |
